Results as given in patent publication EP0434360A1, “New benziodiazepine analogs” (MERCK & CO. INC., priority 1989, dated 1991).
Where two headings read alike, the source gives them in different places.

How the values were obtained:
[1] = target: T1, CCK receptor (brain, cerebral cortex) (Cavia porcellus, UniProt H0VZC5); test: CCK Receptor Binding (Brain), inhibition of 125I-CCK-33 binding; parameters: species or system guinea pig
T1 construct: Cerebral cortex was dissected and used as a receptor source; from tissue; host or cells: guinea pig cerebral cortex membrane homogenate
T1 sequence (H0VZC5 1-426): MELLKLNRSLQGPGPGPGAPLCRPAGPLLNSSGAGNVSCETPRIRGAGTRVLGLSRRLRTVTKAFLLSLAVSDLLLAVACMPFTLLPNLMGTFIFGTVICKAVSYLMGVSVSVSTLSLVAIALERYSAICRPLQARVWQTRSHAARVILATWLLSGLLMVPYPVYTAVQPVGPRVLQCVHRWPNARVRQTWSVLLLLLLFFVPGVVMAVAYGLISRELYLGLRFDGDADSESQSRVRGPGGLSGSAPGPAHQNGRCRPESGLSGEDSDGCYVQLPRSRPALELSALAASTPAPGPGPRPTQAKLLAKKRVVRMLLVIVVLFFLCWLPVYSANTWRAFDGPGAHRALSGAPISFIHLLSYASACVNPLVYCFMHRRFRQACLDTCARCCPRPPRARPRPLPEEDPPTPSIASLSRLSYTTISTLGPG
Procedure: 2. CCK Receptor Binding (Brain)
CCK-33 was radiolabeled and the binding was performed according to the description for the pancreas method with modifications according to Saito et al., J. Neurochem. 37: 483-490, 1981.
Male Hartley guinea pigs (300-500 g) were sacrificed by decapitation and the brains were removed and placed in ice-cold 50 mM, Tris HCI plus 7.58 g/l Trizma-7.4 (pH 7.4 at 25°C). Cerebral cortex was dissected and used as a receptor source. Each gram of fresh guinea pig brain tissue was homogenized in 10 ml of Tris/Trizma buffer with a Brinkman polytron PT-10. The homogenates were centrifuged at 42,000 g for 15 minutes. Pellets were resuspended in Tris Buffer, centrifuged as above and resuspended in 200 volumes of binding assay buffer (10 mM N-2-hydroxyethyl-piperazine-N'-2-ethane sulfonic acid (HEPES), 5 mM MgCl2, 0.25 mg/ml bacitracin, 1 mM ethylene glycol-bis-(β-aminoethylether-N,N'-tetraacetic acid) (EGTA), and 0.4% bovine serum albumin (BSA)). […] All assays were run in duplicate or triplicate. The reaction mixtures were incubated at 25°C for 2 hours and centrifuged in a Beckman Microfuge (4 minutes) immediately after adding 1 ml of ice-cold incubation buffer. The supernatant was aspirated and discarded, pellets were counted with a Beckman gamma 5000.

[2] = target: T2, gastrin receptor (gastric glands) (Cavia porcellus, UniProt H0VZC5); test: Gastrin Receptor Binding in Guinea Pig Gastric Glands
T2 construct: The washed guinea pig gastric glands prepared as above were resuspended in 25 ml of standard buffer; from tissue; host or cells: isolated guinea pig gastric mucosal glands (collagenase-dispersed)
T2 sequence (H0VZC5 1-426): T1 sequence (H0VZC5 1-426)

CCK receptor (pancreas) = target: T3, CCK receptor (pancreas) (Rattus norvegicus, UniProt P30551); test: CCK Receptor Binding (Pancreas), inhibition of 125I-CCK-33 binding
T3 construct: The whole pancreas was dissected free of fat tissue and was homogenized; from tissue; host or cells: rat whole pancreas membrane homogenate
T3 sequence (P30551 1-444): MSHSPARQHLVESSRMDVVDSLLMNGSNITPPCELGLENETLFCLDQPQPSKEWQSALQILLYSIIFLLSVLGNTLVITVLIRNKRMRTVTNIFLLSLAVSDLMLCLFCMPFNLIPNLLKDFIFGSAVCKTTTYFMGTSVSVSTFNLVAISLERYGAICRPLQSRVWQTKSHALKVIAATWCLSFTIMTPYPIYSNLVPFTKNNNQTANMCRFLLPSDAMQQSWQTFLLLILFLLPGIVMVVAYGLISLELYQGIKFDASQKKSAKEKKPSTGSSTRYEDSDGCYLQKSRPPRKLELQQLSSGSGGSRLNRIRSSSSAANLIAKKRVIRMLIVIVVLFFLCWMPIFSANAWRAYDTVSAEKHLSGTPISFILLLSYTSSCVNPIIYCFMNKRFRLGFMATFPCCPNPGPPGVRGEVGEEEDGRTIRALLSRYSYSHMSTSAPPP
Procedure: 1. CCK Receptor Binding (Pancreas)
CCK-33 was radiolabeled with ^1251-Bolton Hunter reagent (2000 Cilmmole) as described by Sankara et al. (J. Biol. Chem. 254: 9349-9351, 1979). Receptor binding was performed according to Innis and Snyder (Proc. Natl. Acad. Sci. 77 6917-6921, 1980) with the minor modification of adding the additional protease inhibitors, phenyl-methane sulfonyl fluoride and o-phenanthroline.
Male Sprague-Dawley rats (200-350 g) were sacrificed by decapitation. The whole pancreas was dissected free of fat tissue and was homogenized in 20 volumes of ice-cold 50 mM, Tris HCI (pH 7.7 at 25°C) with a Brink- mann Polytron PT 10. The homogenates were centrifuged at 48,000 g for 10 min. Pellets were resuspended in Tris Buffer, centrifuged as above and resuspended in 200 volumes of binding assay buffer (50 mM Tris HCI, pH 7.7 at 25°C, 5 mM dithiothrietol, 0.1 mM bacitracin, 1.2 mM phenyl-methane sulfonyl fluoride and 0.5 mM o-phenanthroline). […] All assays were run in duplicate or triplicate. The reaction mixtures were incubated at 37°C for30 minutes and centrifuged in a Beckman Microfuge (4 minutes) immediately after adding 1 ml of ice-cold incubation buffer. The supernatant was aspirated and discarded, pellets were counted with a Beckman gamma 5000. For Scatchard analysis (Ann. N.Y. Acad. Sci. 51 : 660, 1949), ^125I-CCK-33 was progressively diluted with increasing concentrations of CCK-33.

[3] = guinea pig cerebral cortex membranes, 125I-CCK-33, 25°C 2 hours, read-out: IC50(µM) ^125I-CCK Brain
[4] = guinea pig gastric mucosal glands, 125I-gastrin, 25°C 30 minutes, read-out: IC50(µM) ^125I-Gastrin Gastric Glands
[5] = rat pancreas membranes, 125I-CCK-33, 37°C 30 minutes, read-out: IC50(µM) ^125I-CCK Pancreas

Compound	IC50 [1]	IC50 [2]	IC50 (CCK receptor (pancreas))	IC50 [1, 3]	IC50 [2, 4]	IC50 (CCK receptor (pancreas); [5])
CN1C(=O)C(NC(=O)Nc2cccc(C(=O)O)c2)N=C(c2ccccc2)c2ccccc21 (racemic) [Example 9, (RS)-3-((((2,3-Dihydro-1-methyl-2-oxo-5-phenyl-1 H-1,4-benzodiazepin-3-yl)amino)carbonyl)amino)benzoic acid]	0.0039 µM	0.009 µM	0.049 µM	–	–	–
O=C(NC1N=C(c2ccccc2)c2ccccc2N(CCO)C1=O)c1cc2ccccc2[nH]1 (racemic) [Example 12, (RS)-N-(2,3-Dihydro-1-(2-hydroxyethyl)-2-oxo-5-phenyl-1 H-1,4-benzodiazepin-3-yl)-1 H-indole-2-carboxamide]	–	–	0.0024 µM	0.16 µM	0.24 µM	–
CN1C(=O)C(NC(=O)Nc2cc3c(cn2)[nH]c2ccccc23)N=C(c2ccccc2)c2ccccc21 (racemic) [Example 13, (RS)-N-(2,3-Dihydro-1-methyl-2-oxo-5-phenyl-1H-1,4-benzodiazepin-3-yl)-N'-9H-pyrido(3,4-b)indol-3-yl-urea]	0.071 µM	–	0.014 µM	–	6.4 µM	–
CN1C(=O)C(NC(=O)Nc2ccc(N)nc2)N=C(c2ccccc2)c2ccccc21 (racemic) [Example 14, (RS)-N-(6-Amino-3-pyridyl)-N'-(2,3-dihydro-l-methyl-2-oxo-5-phenyl-1H-1,4-benzodiazepin-3-yl)-urea]	0.011 µM	0.4 µM	–	–	–	2.7 µM
Cc1cccc(NC(=O)N[C@@H]2N=C(c3ccccc3)c3ccccc3N(C)C2=O)c1 [Example 5, (R)-N-(2,3-Dihydro-1-methyl-2-oxo-5-phenyl-1 H-1,4-benzodiazepin-3-yl)-N'-(3-methylphenyl)-urea]	0.002 µM	0.0011 µM	–	–	–	–
CN1C(=O)[C@@H](NC(=O)c2cc3ccccc3n2CC(=O)O)N=C(c2ccccc2)c2ccccc21 [Example 6, 3(S)-3-(2-(N-carboxymethylindole)carbonylamino)-1,3-dihydro-1-methyl-5-phenyl-2H-1,4-benzodiazepin-2-one]	–	–	0.00013 µM	0.129 µM	0.07 µM	–
CN1C(=O)[C@@H](NC(=O)c2cc3ccccc3n2CCCC(=O)O)N=C(c2ccccc2)c2ccccc21 [Example 7, (S)-4-[-2-(((2,3-Dihydro-1-methyl-2-oxo-5-phenyl-1H-1,4-benzodiazepin-3-yl)amino)carbonyl)-1H-indolyl-1]-bu tanoic acid]	–	–	0.0001 µM	0.23 µM	0.24 µM	–
CN1C(=O)[C@H](NC(=O)Nc2cccc(C(=O)O)c2)N=C(c2ccccc2)c2ccccc21 [Example 10, (R)-3-((((2,3-Dihydro-l-methyl-2-oxo-5-phenyl-1H-1,4-benzodiazepin-3-yl)amino)carbonyl)amino)benzoic a cid]	0.0039 µM	0.009 µM	–	–	–	0.049 µM
CN1C(=O)C(NC(=O)c2cc3cc(OCC(=O)O)ccc3[nH]2)N=C(c2ccccc2)c2ccccc21 (stereo not shown) [Example 16, 1,3-Dihydro-3-(5-carboxymethyloxyindole-2-carbonylamino)-1-methyl-5-phenyl-2H-1,4-benzodiazepin 2-one]	–	–	0.023 µM	0.16 µM	–	–
Cc1cccc(NC(=O)NC2N=C(c3ccccc3)c3ccccc3N(CCO)C2=O)c1 (stereo not shown) [Example 17, N-(2,3-Dihydro-1-(2-hydroxyethyl)-2-oxo-5-phenyl-1 H-1,4-benzodiazepin-3-yl)-N'-(3-methylphenyl)-urea]	0.012 µM	0.0038 µM	0.069 µM	–	–	–
COc1cccc(NC(=O)NC2N=C(c3ccccc3)c3ccccc3N(CCN(C)C)C2=O)c1 (stereo not shown) [Example 18, N-(2,3-Dihydro-1-(2-dimethylaminoethyl)-2-oxo-5-phenyl-1H-1,4-benzodiazepin-3-yl) -N'-(3-methoxyphenyl)-urea]	0.024 µM	0.01 µM	2.6 µM	–	–	–
CCOC(=O)c1cccc(NC(=O)N[C@@H]2N=C(c3ccccc3)c3ccccc3N(C)C2=O)c1 [Example 19, (R)-3-((((2,3-Dihydro-1-methyl-2-oxo-5-phenyl-1H-1,4-benzodiazepin-3-yl)amino)carbonyl)amino)benzoic acid ethyl ester]	–	–	0.02 µM	0.026 µM	0.018 µM	–
